This is an account of results in US5677459A, “Methods for the preparation of modulators of acetylcholine receptors” (Sibia Neurosciences, Inc., priority 1995, dated 1997).

One test has as its system rats. The test can be described thus: Locomotor activity assay. The test is classed as in vivo, rat (male Sprague-Dawley). The conditions noted are these: Rattus norvegicus, sc, s.c.; for change in vivo at 1 mg/kg: 1 mg/kg salt. The method, then:
This assay can be used to assess the primary effect of a compound on general motor activity. A decrease in locomotor activity is indicative of a possible sedative effect on the animal, whereas an increase in locomotor activity is indicative of a stimulant effect on the animal.
Locomotor activity of rats (male Sprague-Dawley (Harlan) weighing 200-250 gm) was measured for 2 hrs in photocell cages immediately after administration of the invention compound. Prior to the test day, the animals were placed in the activity cages for 3 hrs to familiarize them with the experimental environment. On the test day, the animals were placed in the photocell cages and then injected with compound 1.5 hrs later.
The photocell cages were standard rodent cages (30 cm×20 cm×40 cm) with four infrared beams crossing the long axis. The animals were under no motivational constraints and were free to move around. Movements from one infrared beam to another (ambulation) were called "crossover"; successive interruptions of the same beam (vertical and other movements such as grooming) were called "general activity."

The subject of test [1] is rats with unilateral 6-hydroxydopamine lesions of the nigrostriatal dopamine pathway. The format is in vivo, rat (male Sprague-Dawley). The method, then:
Selective lesions of the brain dopamine pathway using the neurotoxin 6-hydroxydopamine (6-OHDA) in rats can be used as an experimental approach to Parkinson's disease. Unilateral lesions of the nigrostriatal dopamine pathway induce a postural asymmetry which becomes manifested as rotation when the animals are activated by dopamine releasers or dopamine agonists. When amphetamine and other stimulant drugs that induce pre-synaptic release of dopamine from intact nerve terminals are administered, the rats rotate in a direction ipsilateral to the lesion. In contrast, when the rats are injected with post-synaptic dopamine receptor agonists, such as apomorphine, they turn in a contralateral direction, due to the development of supersensitive dopamine receptors in the lesioned side. Thus, the 6-OHDA model can be used to determine if a suspected dopaminergic agent is active, and to differentiate whether such action is pre- or post-synaptic.
The effects of invention compounds on rotational behavior in 6-hydroxydopamine denervated rats were evaluated using the procedure of Ungerstedt and Arbutknott, Brain Res. 24:485-493 (1970). Male Sprague-Dawley rats (Zivic Miller) weighing 170-200 gm were used in the 6-OHDA procedure. The ascending nigrostriatal dopamine pathway was lesioned by unilateral stereotaxic injection of 6-OHDA (8.0 μg) into one substantia nigra. All injections of 6-OHDA were preceded by desmethylimipramine (25 mg/kg i.p.) and pargyline (75 mg/kg i.p.) approximately 30 minutes prior to undergoing stereotaxic surgery for 6-OHDA infusion into the substantia nigra. After one week of recovery from surgery, the effectiveness of the lesions was verified by noting the response of the animals to apomorphine (0.2 mg/kg, s.c.). Only rats with a minimum rate of 80 contralateral turns per 30 minutes (a sign of more than 80-90% dopamine depletion after a 6-OHDA lesion) were used. Two weeks later, the selected rats were tested with invention and reference compounds using an automated rotometer system to record the number and direction of rotations. In order to distinguish spontaneous (non-specific)rotations from induced rotations (specific to the effect of the drug), each rat was used as its own control, employing the following procedure:
The rat was placed in the rotometer system for acclimatation for 15 minutes, the vehicle administered subcutaneously, the rat's rotations recorded for one hour, then test compound was administered s.c. and rotations again recorded for one hour. The number of ipsilateral rotations induced by vehicle was then compared to the number of ipsilateral rotations induced by test compound. Statistical analysis of the data was carried out using Student's t-test (paired).

Test [2] has as its system ^3 H-Norepinephrine release, rat prefrontal cortex slices. The test can be described thus: Ligand-stimulated ^3 H-norepinephrine release from rat prefrontal cortex slices. The test is classed as cell-based. The following applies: in vitro slices, 300 μM. On the procedure: (§1) Measurement of ^3 H-dopamine release from rat striatal slices was performed according to the method of Sacaan et al. (J. Neurochem. 59:245 (1992)). Male Sprague-Dawley rats (250-300 g) were decapitated and the striata or olfactory tubercles dissected quickly on a cold glass surface. The tissue was chopped to a thickness of 300 μm with a McIlwain tissue chopper. After chopping again at right angles the tissue was dispersed and incubated for 10 min. at 37° C. in oxygenated Kreb's buffer. ^3 H-Dopamine (40 Ci/mmol, NEN- Dupont, Boston, Mass.) was added (50 nM) and the tissue was incubated for 30 min. in Kreb's buffer containing 10 μM pargyline and 0.5 mM ascorbic acid. Aliquots of the minced tissue were then transferred to chambers of a Brandel Superfusion system in which the tissue was supported on Whatman GF/B filter discs. The tissue was then superfused with buffer at a constant flow rate of 0.3 ml/min by means of a Brandel peristaltic pump. The perfusate was collected in plastic scintillation vials in 3-min fractions, and the radioactivity was estimated by scintillation spectrophotometry. The superfusate for the first 120 min was discarded. After two baseline fractions had been collected, the superfusion buffer was switched to fresh buffer with or without compound of interest. At the end of the experiment the filter and the tissue were removed, and the radiolabeled neurotransmitter content was estimated after extraction into scintillation fluid. The fractional efflux of radiolabeled neurotransmitter was estimated as the amount of radioactivity in the perfusate fraction relative to the total amount in the tissue.
(§2) Following essentially the same procedure as set forth above, the amount of ^3 H-norepinephrine released from rat hippocampus, thalamus and prefrontal cortex slices superfused with buffer containing (or lacking) compounds of interest was also measured.
(§3) Results of studies of the effects of an invention compound (as compared to the effect of nicotine) on the release of neurotransmitters from rat brain slices are presented in Table II. Results presented in Part A of the Table are expressed as the percent fractional release and results presented in Part B of the Table are expressed as a percentage, relative to nicotine response.

For test [3], the system named is ^3 H-Dopamine release, rat olfactory tubercles. Briefly: Ligand-stimulated ^3 H-dopamine release from rat olfactory tubercles. The format is cell-based. The method, then: as §1, §3
The subject of test [4] is ^3 H-Norepinephrine release, rat thalamus slices. The test can be described thus: Ligand-stimulated ^3 H-norepinephrine release from rat thalamus slices. The test is classed as cell-based. The method, then: as §1, §2, §3
Test [5] deals with ^3 H-Dopamine release, rat striatal slices. Briefly: Ligand-stimulated ^3 H-dopamine release from rat striatal slices. The format is cell-based. The method, then:
as §1, §3

The subject of test [6] is ^3 H-Norepinephrine release, rat hippocampus slices. The test can be described thus: Ligand-stimulated ^3 H-norepinephrine release from rat hippocampus slices. The test is classed as cell-based. The conditions noted are these: for percent fractional release, ^3 H-Norepinephrine, Hippocampus: in vitro slices, 300 μM. On the procedure:
as §1, §2, §3

The target in test [7] is T1, nicotinic acetylcholine receptor (Rattus norvegicus, UniProt P09483+P12390).
T1 construct: the brains removed and the cerebral cortex dissected on ice; from tissue; host or cells: cerebral cortex synaptic membranes of male Sprague-Dawley rats
T1 sequence (P09483 31-630): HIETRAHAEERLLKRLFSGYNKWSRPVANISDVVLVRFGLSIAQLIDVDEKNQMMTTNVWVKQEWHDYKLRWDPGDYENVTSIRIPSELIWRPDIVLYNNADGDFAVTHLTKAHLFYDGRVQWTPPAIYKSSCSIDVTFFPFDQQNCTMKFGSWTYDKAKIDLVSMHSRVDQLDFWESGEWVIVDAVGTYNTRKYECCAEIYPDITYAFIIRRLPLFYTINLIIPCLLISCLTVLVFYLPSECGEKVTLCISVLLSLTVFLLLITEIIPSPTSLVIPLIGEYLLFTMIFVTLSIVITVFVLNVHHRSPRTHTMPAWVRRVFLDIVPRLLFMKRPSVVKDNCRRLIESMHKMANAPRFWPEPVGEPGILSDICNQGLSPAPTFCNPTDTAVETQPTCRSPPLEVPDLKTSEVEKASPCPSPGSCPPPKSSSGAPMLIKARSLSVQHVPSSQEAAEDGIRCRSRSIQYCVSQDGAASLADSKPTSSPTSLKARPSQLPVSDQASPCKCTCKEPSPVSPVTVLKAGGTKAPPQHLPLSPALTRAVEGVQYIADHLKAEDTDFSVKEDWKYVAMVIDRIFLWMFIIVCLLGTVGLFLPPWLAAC
T1 sequence (P12390 25-500): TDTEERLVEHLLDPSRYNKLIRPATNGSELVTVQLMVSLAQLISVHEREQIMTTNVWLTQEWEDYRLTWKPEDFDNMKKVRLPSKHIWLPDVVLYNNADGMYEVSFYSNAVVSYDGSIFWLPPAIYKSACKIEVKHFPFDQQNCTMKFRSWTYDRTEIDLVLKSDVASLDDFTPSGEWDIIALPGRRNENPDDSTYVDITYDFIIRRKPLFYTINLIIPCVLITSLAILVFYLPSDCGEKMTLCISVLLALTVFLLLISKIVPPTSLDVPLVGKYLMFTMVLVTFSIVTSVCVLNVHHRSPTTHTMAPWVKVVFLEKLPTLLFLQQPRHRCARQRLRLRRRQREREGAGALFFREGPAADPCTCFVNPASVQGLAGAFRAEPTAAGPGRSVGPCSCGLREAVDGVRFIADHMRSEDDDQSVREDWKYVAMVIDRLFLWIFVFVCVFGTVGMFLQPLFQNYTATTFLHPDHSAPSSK
The test can be described thus: ^3 H-Nicotine binding/displacement, rat cerebral membranes. The conditions noted are these: ^3 H-nicotine 1.9 nM, rat cerebral membranes; read-out: IC50, Nicotine. The method, then:
^3 H-Nicotine binding to rat cerebral membranes was performed according to modifications of the method of Flyn and Mash (J. Neurochem. 47:1948 (1986)). ^3 H-Nicotine (80 ci/mmol; New England Nuclear Corporation, Boston, Mass.) was used as the ligand for nicotinic acetylcholine receptor binding assays. All other reagents were purchased from the Sigma Chemical Co. (St. Louis, Mo.).
Male Sprague-Dawley rats (250-400 gm) were sacrificed by decapitation, the brains removed and the cerebral cortex dissected on ice. Synaptic membranes were prepared by homogenizing the cortical tissue in 20 volumes of ice-cold modified Tris buffer (50 mM Tris pH 7.4, 120 mM NaCl, 5 mM KCl, 2 mM EDTA, 1 mM PMSF) with a polytron (20 sec at setting 5-6) followed by centrifugation (15 min at 5,000×g) at 4° C. The resultant pellet was rehomogenized and centrifuged twice. The final pellet was resuspended in ice-cold assay buffer (50 mM Tris pH 7.4, 120 mM NaCl, 5 mM KCl, 2 mM CaCl2, 1 mM MgCl2) at a concentration of membrane equivalent to 1 gm wet weight cortex per 10 ml buffer. After protein determination the final membrane preparation was diluted with buffer to 3 mg protein/mi. This membrane preparation was used in either the fresh state or frozen (-70° C.) then thawed.
The binding assay is performed manually using 96-well plates, or using a Biomek automated work station (Beckman Instrument Co.). ^3 H-Nicotine was diluted in assay buffer to give a final concentration of 1.9 nM. The Biomek automated work station was programmed to automatically transfer 750 μl of assay buffer with ^3 H-nicotine, 230 μl of membrane preparation and 20 μl of solution containing the compound of interest in assay buffer, DMSO, ethanol:DMSO (1:1) or appropriate vehicle to the 96-well plate. Atropine was added to the incubation buffer at a final concentration of 3 μM to block binding to muscarinic acetylcholine receptor sites. The plates were maintained on ice for 60 min and the tissue-bound radioactivity was separated from the free by rapid filtration in a Brandel Harvester onto GF/C filters presoaked in 0.5% polyethyleneimine for at least 2 hr. The filters were washed with 4×2 ml of ice-cold assay buffer and filters were transferred to vials to which 4 ml of scintillation cocktail was added. The radioactivity was measured in a LS-6500 Beckman Liquid Scintillation Counter in an autodpm mode. Data were analyzed bylog-logit transformation or non-linear regression analysis (e.g., employing GraphPad Prism, available from GraphPad Software, San Diego, Calif.) to give IC50 values. Non-specific binding was defined by 10 μM cytisine.

Test [8] has as its target muscarinic acetylcholine receptors. Briefly: ^3 H-QNB (quinuclidinyl benzilate) binding/displacement, rat cerebral membranes. The following applies: ^3 H-QNB 60 pM, rat cerebral membranes.
[9] abbreviates: Nicotine concentration was 100 μM.
Where [10] appears, read: 1 h, 0-60 min, read-out: Ambulation (cross overs), percent of change from control.
The mark [11] stands for this setting: 1 h, 0-60 min, read-out: General Activity (beam breaks), percent of change from control.
Where [12] appears, read: 2 h, 60-120 min, read-out: Ambulation (cross overs), percent of change from control.
The mark [13] stands for this setting: 2 h, 60-120 min, read-out: General Activity (beam breaks), percent of change from control.

Structures are written as SMILES. pIC50: −log10 of the molar value. Read-outs that look alike come from different tables or passages of the source.

With `CC(N)Cc1ccccc1` (stereo not shown) [Amphetamine, amphetamine, reference compound], the change in vivo at 0.5 mg/kg with rats (2 h, 60-120 min, 0.5 mg/kg salt, read-out: General Activity (beam breaks), percent of change from control) is 456%. Also, the “Percent change from control (ipsilateral rotations)” value in test [1] (1 mg/kg base, s.c., per one hour interval) is reported as “+487%”.

Take `CN1CCCC1c1cccnc1` (stereo not shown) [Nicotine, nicotine, reference compound]: the “percent fractional release, ^3 H-Norepinephrine, Prefrontal Cortex” value in test [2] is on record as 2.32%. Moreover, in test [3] (setting [9]), the “percent fractional release, ^3 H-Dopamine, Olfactory Tubercles” value stood at 5.61%. Also, the change in vivo at 1 mg/kg came out at 169% in the test on rats (setting [10]), 27% in the test on rats (setting [11]), 163% in the test with rats (setting [12]) and 71% with rats (setting [13]). For the same compound, in [4] (setting [9]), the “percent fractional release, ^3 H-Norepinephrine, Thalamus” value is given as 1.83%. In addition, the “percent fractional release, ^3 H-Dopamine, Striatum” value in test [5] (setting [9]) is on record as 1.84%. The Emax at 10 µM in [5] (Rattus norvegicus, nicotine itself at 10 μM (reference), read-out: % of Nicotine Response, ^3 H-Dopamine, Striatum) was 100%. In addition, in test [1] (rat, in vivo), the “Percent change from control (ipsilateral rotations)” value was “+357”. Moreover, in test [6] (Rattus norvegicus, nicotine 300 μM = 100, read-out: % of Nicotine Response, ^3 H-Norepinephrine, Hippocampus), the Emax at 300 µM is 100%. Also, the “percent fractional release, ^3 H-Norepinephrine, Hippocampus” value in [6] is given as 6.19%.

For `COc1ccc(-c2cncc(C3CCCN3C)c2)cc1.O=C(O)/C=C/C(=O)O` (stereo not shown) [R^5 = 4-methyoxyphenyl, 5-(4-Methoxyphenyl)-3-(1-methyl-2-pyrrolidinyl)pyridine fumarate], the pIC50 in [7] is 7.74; in test [8] it was 4.42. The “percent fractional release, ^3 H-Norepinephrine, Prefrontal Cortex” value in [2] is given as 1.04%. In addition, the “percent fractional release, ^3 H-Dopamine, Olfactory Tubercles” value in [3] (in vitro slices, 300 μM) is recorded as 4.0%. For the same compound, the change in vivo at 20 mg/kg stood at 58% with rats (setting [10]), 83% in the test on rats (setting [11]), 31% in the test with rats (setting [12]) and 22% in the test on rats (setting [13]). For the same compound, in test [4] (in vitro slices, 300 μM), the “percent fractional release, ^3 H-Norepinephrine, Thalamus” value is 0.52%. Besides, the “percent fractional release, ^3 H-Dopamine, Striatum” value in [5] (in vitro slices, 300 μM) is on record as 2.1%. Besides, in test [6], the “percent fractional release, ^3 H-Norepinephrine, Hippocampus” value is reported as 0.99%.
